Consider one molecule from article PMC4151706 (Journal of the American Chemical Society, 2014).

This assay has as its target HIV-1 protease WT subtype C (Human immunodeficiency virus type 1 group M subtype C, UniProt O12158). The conditions noted are these: protease variant subtype C.

Sequence of HIV-1 protease WT subtype C (O12158 485-583): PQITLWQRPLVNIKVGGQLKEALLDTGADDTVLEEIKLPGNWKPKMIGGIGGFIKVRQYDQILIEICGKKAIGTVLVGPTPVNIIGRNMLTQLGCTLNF

As to `CC(C)CN(C[C@@H](O)[C@H](Cc1ccccc1)NC(=O)O[C@H]1CO[C@H]2OCC[C@H]21)S(=O)(=O)c1ccc(N)cc1` [DRV, Darunavir], the affinity corresponds to a Ki of 5 ± 2 pM.

The term Ki denotes a measure of affinity in units of concentration, obtained from inhibition or displacement.
